Measurements as given in ChEMBL document CHEMBL6103593, “Design of Selective BRD4 Inhibitors for the Treatment of Autosomal Dominant Polycystic Kidney Disease” (J Med Chem, 2025).

How the values were obtained:
[1] = molecular target: T1, Bromodomain-containing protein 2 (Homo sapiens, UniProt P25440); assay: Inhibition of BRD2 bromodomain 1 (67 to 200 residues) (unknown origin) extracted from Escherichia coli […] codon plus RIL cells incubated for 4 hrs by fluorescence anisotropy
[2] = molecular target: T1, Bromodomain-containing protein 2; assay: Inhibition of BRD2 bromodomain 2 (348 to 455 residues) (unknown origin) extracted from Escherichia coli […] codon plus RIL cells incubated for 4 hrs by fluorescence anisotropy
[3] = molecular target: Histone acetyltransferase p300 (Homo sapiens, UniProt Q09472); assay: Inhibition of EP300 (1039 to 1161 residues) (unknown origin) extracted from Escherichia coli […] codon plus RIL cells incubated for 4 hrs by fluorescence anisotropy
[4] = molecular target: T2, Bromodomain-containing protein 4 (Homo sapiens, UniProt O60885); assay: Inhibition of BRD4 bromodomain 1 (44 to 168 residues) (unknown origin) extracted from Escherichia coli […] codon plus RIL cells incubated for 4 hrs by fluorescence anisotropy
[5] = molecular target: T2, Bromodomain-containing protein 4; assay: Inhibition of BRD4 bromodomain 2 (332 to 460 residues) (unknown origin) extracted from Escherichia coli […] codon plus RIL cells incubated for 4 hrs by fluorescence anisotropy

Histone acetyltransferase p300, sequence (Q09472 whole entry, the tested form may be a part): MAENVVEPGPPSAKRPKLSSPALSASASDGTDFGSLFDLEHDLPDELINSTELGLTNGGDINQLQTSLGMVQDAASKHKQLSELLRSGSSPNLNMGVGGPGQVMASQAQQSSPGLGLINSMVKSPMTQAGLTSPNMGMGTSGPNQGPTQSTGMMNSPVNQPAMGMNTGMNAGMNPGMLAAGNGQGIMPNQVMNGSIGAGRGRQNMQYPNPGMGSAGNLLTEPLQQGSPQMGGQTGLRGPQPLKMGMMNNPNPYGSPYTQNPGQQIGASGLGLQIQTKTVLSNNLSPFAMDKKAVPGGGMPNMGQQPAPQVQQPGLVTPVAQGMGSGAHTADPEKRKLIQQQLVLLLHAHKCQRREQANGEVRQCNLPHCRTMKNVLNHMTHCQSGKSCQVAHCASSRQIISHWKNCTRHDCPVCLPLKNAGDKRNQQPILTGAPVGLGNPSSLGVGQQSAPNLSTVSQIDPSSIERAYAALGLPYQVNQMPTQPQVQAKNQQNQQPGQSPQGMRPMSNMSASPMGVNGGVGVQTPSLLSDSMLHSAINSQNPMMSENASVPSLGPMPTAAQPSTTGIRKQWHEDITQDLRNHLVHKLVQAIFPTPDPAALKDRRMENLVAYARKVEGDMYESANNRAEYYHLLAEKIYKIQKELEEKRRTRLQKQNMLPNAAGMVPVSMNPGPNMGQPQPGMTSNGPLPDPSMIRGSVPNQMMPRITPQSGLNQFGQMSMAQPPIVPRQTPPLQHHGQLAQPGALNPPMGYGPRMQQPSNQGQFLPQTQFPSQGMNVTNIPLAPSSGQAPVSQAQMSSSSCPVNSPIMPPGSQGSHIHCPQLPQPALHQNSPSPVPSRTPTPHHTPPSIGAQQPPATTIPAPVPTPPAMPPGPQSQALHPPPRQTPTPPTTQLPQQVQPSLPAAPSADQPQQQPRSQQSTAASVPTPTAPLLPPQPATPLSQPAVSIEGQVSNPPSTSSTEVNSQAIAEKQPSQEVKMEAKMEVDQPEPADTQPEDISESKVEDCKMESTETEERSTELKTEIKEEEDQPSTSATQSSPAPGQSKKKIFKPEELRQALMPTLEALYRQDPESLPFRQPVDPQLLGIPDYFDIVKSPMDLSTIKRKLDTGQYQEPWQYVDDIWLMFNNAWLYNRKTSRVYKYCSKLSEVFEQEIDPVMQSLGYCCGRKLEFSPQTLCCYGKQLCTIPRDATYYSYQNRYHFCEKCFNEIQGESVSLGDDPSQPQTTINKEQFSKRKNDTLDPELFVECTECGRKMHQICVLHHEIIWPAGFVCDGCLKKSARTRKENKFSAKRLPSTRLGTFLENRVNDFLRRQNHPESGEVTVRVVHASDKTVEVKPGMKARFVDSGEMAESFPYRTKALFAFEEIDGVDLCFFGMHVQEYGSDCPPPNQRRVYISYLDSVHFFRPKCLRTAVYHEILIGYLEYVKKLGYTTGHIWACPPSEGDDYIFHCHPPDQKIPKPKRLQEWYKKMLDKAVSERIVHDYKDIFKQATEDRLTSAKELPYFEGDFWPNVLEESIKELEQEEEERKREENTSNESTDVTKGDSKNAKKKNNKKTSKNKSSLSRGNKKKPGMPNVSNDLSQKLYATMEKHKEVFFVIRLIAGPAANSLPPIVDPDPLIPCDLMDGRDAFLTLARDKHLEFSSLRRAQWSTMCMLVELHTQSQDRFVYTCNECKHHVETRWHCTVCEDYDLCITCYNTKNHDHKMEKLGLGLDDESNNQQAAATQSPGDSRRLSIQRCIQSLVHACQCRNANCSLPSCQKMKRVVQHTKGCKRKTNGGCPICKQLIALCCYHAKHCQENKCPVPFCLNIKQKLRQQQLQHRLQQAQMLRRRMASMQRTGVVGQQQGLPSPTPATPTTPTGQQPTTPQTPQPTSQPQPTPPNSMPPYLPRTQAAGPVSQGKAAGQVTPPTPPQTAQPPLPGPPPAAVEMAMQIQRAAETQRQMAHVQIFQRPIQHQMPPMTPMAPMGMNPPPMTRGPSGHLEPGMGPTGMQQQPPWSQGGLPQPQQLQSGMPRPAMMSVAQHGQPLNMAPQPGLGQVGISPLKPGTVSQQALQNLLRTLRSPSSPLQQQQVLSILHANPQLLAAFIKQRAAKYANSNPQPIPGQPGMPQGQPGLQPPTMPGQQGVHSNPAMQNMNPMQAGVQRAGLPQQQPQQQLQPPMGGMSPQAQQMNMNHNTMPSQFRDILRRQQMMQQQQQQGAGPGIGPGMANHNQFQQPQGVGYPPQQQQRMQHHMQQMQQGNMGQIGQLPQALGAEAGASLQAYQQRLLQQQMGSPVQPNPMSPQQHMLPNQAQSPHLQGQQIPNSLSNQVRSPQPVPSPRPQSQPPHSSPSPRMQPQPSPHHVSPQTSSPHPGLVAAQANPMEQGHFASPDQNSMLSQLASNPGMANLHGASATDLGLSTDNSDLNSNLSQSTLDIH
T1 sequence (P25440 whole entry, the tested form may be a part): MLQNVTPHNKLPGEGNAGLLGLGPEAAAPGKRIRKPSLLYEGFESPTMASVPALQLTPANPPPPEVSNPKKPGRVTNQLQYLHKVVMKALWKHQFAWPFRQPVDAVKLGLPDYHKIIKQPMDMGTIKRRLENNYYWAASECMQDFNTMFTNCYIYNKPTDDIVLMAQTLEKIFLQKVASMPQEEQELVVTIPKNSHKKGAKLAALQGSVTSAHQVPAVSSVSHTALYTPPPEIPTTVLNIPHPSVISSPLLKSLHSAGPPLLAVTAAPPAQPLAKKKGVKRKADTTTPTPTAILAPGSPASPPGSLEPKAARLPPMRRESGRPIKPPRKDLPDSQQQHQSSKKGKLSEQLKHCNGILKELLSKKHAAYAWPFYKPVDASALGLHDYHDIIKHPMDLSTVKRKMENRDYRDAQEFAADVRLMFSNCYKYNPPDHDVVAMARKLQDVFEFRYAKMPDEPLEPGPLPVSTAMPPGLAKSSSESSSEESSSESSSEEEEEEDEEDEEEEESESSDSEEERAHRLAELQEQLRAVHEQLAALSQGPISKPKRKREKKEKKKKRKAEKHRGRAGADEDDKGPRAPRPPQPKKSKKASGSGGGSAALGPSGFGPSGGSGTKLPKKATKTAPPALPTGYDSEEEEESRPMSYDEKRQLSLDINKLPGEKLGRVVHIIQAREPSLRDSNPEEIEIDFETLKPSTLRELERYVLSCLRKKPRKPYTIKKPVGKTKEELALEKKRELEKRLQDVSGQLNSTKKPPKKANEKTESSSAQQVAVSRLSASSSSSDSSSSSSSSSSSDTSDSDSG

SMILES | IC50 [1] [µM] | IC50 [2] [µM] | IC50 [3] [µM] | IC50 [4] [µM] | IC50 [5] [µM]
Cc1cc(Nc2nn(C)c3ccccc23)nc(Nc2ccc3c(c2)N(C(C)C)[C@H](C)C(=O)N3C)n1 | 0.0505 | 0.291 | > 1 |  | 
CCc1cc(Nc2cccc(Cl)c2)nc(Nc2ccc3c(c2)N(C(C)C)[C@H](C)C(=O)N3C)n1 |  |  |  | 0.504 | 2.07
CCc1cc(Nc2nn(C)c3ccccc23)nc(Nc2ccc3c(c2)N(C(C)C)[C@H](C)C(=O)N3C)n1 | 0.0293 | 0.302 | > 1 |  | 
CC(C)N1c2cc(Nc3nccc(Nc4nn(C)c5ccccc45)n3)ccc2N(C)C(=O)[C@H]1C | 0.0318 | 0.233 | > 1 |  | 
